Source: patent US20080009545A1, “Anticancer agents” (The Ohio State University Research Foundation, priority 2006, published 2008)

Legend:
PrEC cells = experiment: MTT cell viability, normal prostate epithelial cells (PrECs); assay type: cell-based, human; details: 24 h, Prostate Epithelial Cell Basal Medium with growth supplements
Protocol: Cell culture—LNCaP androgen-dependent (p53+/+) and PC-3 androgen-nonresponsive (P53−/−) prostate cancer cells were obtained from the American Type Culture Collection (Manassas, Va.). The preparation of the stable Bcl-xL-overexpressing LNCaP clone B3 (LNCaP/B3) was previously described (18). PC-3, LNCaP, and LNCaP/B3 cells were maintained in RPMI 1640 supplemented with 10% fetal bovine serum (FBS) at 37° C. in a humidified incubator containing 5% carbon dioxide. Normal human prostate epithelial (PrEC) cells were purchased from Cambrex Bio Science Walkersville, Inc. (East Tutherford, N.J.). Cells were maintained in Prostate Epithelial Cell Medium with growth supplements at 37° C. in a humidified incubator containing 5% carbon dioxide. The recommended seeding density for subculture is 2,500 cells/cm^2. It takes 6-9 days from subculture to attain confluency.
Cell viability analysis—The effect of individual test agents on cell viability was assessed by using the MTT assay in 6 to 12 replicates. PC3, LNCaP, and B3-LNCaP cells were seeded and incubated in poly-p-lysine-coated, 96-well, flat-bottomed plates in RPMI 1640 medium supplemented with 10% FBS medium for 24 hours. PrEC cells were seeded at the recommend density in 96-well, flat-bottomed plates in Prostate Epithelial Cell Medium with growth supplements for 3 days. All cells were exposed to various concentrations of test agents dissolved in ethanol (for α-tocopherol, α-tocopheryl succinate, and TS-3) or DMSO (all other test agents used) with a final concentration of 0.1% in serum-free RPMI 1640 medium for PC3, LNCaP, and LNCaP/B3 cells or in Prostate Epithelial Cell Basal Medium with growth supplements for PrEC cells. Controls received DMSO or ethanol vehicle at a concentration equal to that in drug-treated cells. The medium was removed, replaced by 200 μL of 0.5 mM MTT in 10% FBS-containing RPMI 1640 medium, and cells were incubated in the CO2 incubator at 37° C. for 2 h. […] Absorbance at 570 nm was determined on a plate reader.

PC-3 cells = experiment: Apoptosis detection in PC-3 cells (cell death ELISA, cytochrome c release, PARP cleavage); assay type: cell-based, human; details: 24 h, serum-free medium
Protocol: Apoptosis detection by ELISA—Induction of apoptosis was assessed with a Cell Death Detection ELISA kit (Roche Diagnostics) by following the manufacturer's instruction. This test is based on the quantitative determination of cytoplasmic histone-associated DNA fragments in the form of mononucleosomes and oligonucleosomes after induced apoptotic death. In brief, 5×10^6 cells were cultured in a T-25 flask in 10% FBS-containing medium for 24 h, and were treated with the test agents at various concentrations in serum-free medium for 24 hours. Both floating and adherent cells were collected; cell lysates equivalent to 5×10^5 cells were used in the ELISA.
Western blot analysis of cytochrome c release into the cytoplasm—Cytosolic-specific, mitochondria-free lysates were prepared according to an established procedure (18). In brief, after individual treatments for 24 h, both the incubation medium and adherent cells in T-75 flasks were collected and centrifuged at 600×g for 5 min. […] Bands were transferred to nitrocellulose membranes and analyzed by immunoblotting with anti-cytochrome c antibodies as described below. […]

Bcl-2/Bak interactions = target: T1, Bcl-2/Bak interactions (Homo sapiens, UniProt P10415); experiment: Co-immunoprecipitation of Bcl-2/Bak in PC-3 cells; assay type: cell-based
T1 construct: endogenous in cells; host or cells: PC-3 cells
T1 sequence (P10415 whole entry): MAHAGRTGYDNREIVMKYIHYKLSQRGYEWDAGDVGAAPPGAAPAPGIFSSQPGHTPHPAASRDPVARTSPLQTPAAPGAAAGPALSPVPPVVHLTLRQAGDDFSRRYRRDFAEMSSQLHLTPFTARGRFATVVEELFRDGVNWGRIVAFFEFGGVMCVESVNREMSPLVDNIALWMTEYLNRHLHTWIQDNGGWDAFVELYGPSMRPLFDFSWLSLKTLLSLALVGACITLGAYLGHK
Protocol: Immunoblotting—Cells were seeded in 10% FBS-containing RPMI-1640 medium for 24 h and treated with various agents as aforementioned. After individual treatments for 24 h, the adherent cells in T-25 or T-75 flasks were scraped, combined with the medium, and centrifuged at 2200 rpm for 10 min. The […] were recovered, placed on ice, and triturated with 20 to 50 μL of a chilled lysis buffer (M-PER Mammalian Protein Extraction Reagent; Pierce, Rockford, Ill.), to which was added 1% protease inhibitor cocktail (set III; EMD Biosciences, Inc., San Diego, Calif.). After a 30-min incubation on ice, the mixture was centrifuged at 16,100×g for 3 min. […]
The pellet was resuspended in ice-cold 0.5 mL of radioimmunoprecipitation assay buffer (50 mM Tris-HCl, pH 7.4, 1% Nonidet P-40, 0.25% sodium deoxycholate, 150 mM NaCl, 1 mM EDTA, and 1% protease inhibitor cocktail) and gently mixed on an orbital shaker at 4° C. for 15 min, followed by centrifugation at 14,000×g for 15 min to yield cell lysates. […] Equal amounts of proteins from these lysates, as determined by the Bradford assay, were mixed with anti-Bcl-2 or anti Bcl-XL antibodies in an orbital shaker at 23° C. for 2 h, followed by 100 μL of protein A-agarose bead slurry at 4° C. for 12 h. […]

Structure (SMILES) | antiproliferative effect on normal prostate epithelial cells (PrEC cells) | apoptotic death (PC-3 cells) | intracellular binding of Bak to Bcl-2 (Bcl-2/Bak interactions; 10 μM) | level of Bak associated with Bcl-2 (Bcl-2/Bak interactions; 40 μM, 12 h, vs DMSO control)
Cc1c(C)c2c(c(C)c1OC(=O)CCC(=O)O)CCC(C)(CCCC(C)CCCC(C)C)O2 (stereo not drawn) [TS-1, succinic acid mono-[2-(4,8-dimethyl-nonyl)-2,5,7,8-tetramethyl-chroman-6-yl]ester] | resistant | evidenced by DNA fragmentation, cytochrome c release, and PARP cleavage | abolished | 
Cc1c(C)c2c(c(C)c1OC(=O)CCC(=O)O)CC[C@@](C)(CCC[C@H](C)CCC[C@H](C)CCCC(C)C)O2 [α-tocopheryl succinate, reference compound] | resistant | evidenced by DNA fragmentation, cytochrome c release, and PARP cleavage |  | significantly reduced
